ChEMBL document CHEMBL1201862, “PubChem BioAssay data set” (2004)
Calls of active or inactive are those of the source.

Experiments:
[1] = Luminescence Cell-Based Dose Response HTS to Identify Activators of Luciferase Translation or Activity in H4 […] Cells. [Related pubchem assays: 1829 (Project Summary), 1814 (Primary HTS)]; assay type: functional
[2] = Luminescence Cell-Based Dose Response to Identify Activators of 5'UTR Stem-Loop Driven Prion Protein mRNA Translation in H4-C Neuroglioblastoma Cells. [Related pubchem assays: 1829 (Project Summary), 1814 (Primary HTS)]; assay type: functional
Vero [3] = assay: Vero cell cytotoxicity, cytotoxicity control for flavivirus capping enzyme inhibitors (AID 588742); assay type: functional; settings: Chlorocebus sabaeus
[4] = C. albicans growth with fluconazole, confirmation, fluorescence, retest (AID 2467); assay type: functional, cell-based
[5] = Luminescence Cell-Based Dose Response to Identify Activators of Luciferase Translation or Activity in H4-C Neuroglioblastoma Cells. [Related pubchem assays: 1829 (Project Summary), 1814 (Primary HTS)]; assay type: functional
[6] = NIH-3T3 fibroblast cytotoxicity, dose response, cytotoxicity control, cell-based, fluorescence, Alamar Blue, secondary assay (AID 2327); assay type: functional;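 note: NIH-3T3 mouse fibroblasts cultured with fluconazole at 8 µg/mL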
[7] = Luminescence Cell-Based Dose Confirmation to Identify Activators of 5'UTR Stem-Loop Driven Alpha-Synuclein mRNA Translation in H4 Neuroglioblastoma Cells. [Related pubchem assays: 1829 (Project Summary), 1814 (Primary HTS)]; assay type: functional
H4 = assay: Luminescence Cell-Based Dose Response HTS to Identify Activators of 5'UTR Stem-Loop Driven Prion Protein mRNA Translation in H4 Neuroglioblastoma Cells. [Related pubchem assays: 1829 (Project Summary), 1814 (Primary HTS)]; assay type: functional; settings: Homo sapiens
ORF 73 = molecular target: T1, ORF 73 (Human herpesvirus 8, UniProt O40947); assay: inhibitors of C-LANA binding to LBS DNA, dose response, biochemical, fluorescence polarization, cherry-picked samples (AID 504725); design: species or system Human gammaherpesvirus 8;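 note: fluorescence polarization of a labeled DNA duplex reporting LANA DNA binding; potency is for inhibitors that block LANA binding to the DNA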
T1 sequence (O40947 whole entry): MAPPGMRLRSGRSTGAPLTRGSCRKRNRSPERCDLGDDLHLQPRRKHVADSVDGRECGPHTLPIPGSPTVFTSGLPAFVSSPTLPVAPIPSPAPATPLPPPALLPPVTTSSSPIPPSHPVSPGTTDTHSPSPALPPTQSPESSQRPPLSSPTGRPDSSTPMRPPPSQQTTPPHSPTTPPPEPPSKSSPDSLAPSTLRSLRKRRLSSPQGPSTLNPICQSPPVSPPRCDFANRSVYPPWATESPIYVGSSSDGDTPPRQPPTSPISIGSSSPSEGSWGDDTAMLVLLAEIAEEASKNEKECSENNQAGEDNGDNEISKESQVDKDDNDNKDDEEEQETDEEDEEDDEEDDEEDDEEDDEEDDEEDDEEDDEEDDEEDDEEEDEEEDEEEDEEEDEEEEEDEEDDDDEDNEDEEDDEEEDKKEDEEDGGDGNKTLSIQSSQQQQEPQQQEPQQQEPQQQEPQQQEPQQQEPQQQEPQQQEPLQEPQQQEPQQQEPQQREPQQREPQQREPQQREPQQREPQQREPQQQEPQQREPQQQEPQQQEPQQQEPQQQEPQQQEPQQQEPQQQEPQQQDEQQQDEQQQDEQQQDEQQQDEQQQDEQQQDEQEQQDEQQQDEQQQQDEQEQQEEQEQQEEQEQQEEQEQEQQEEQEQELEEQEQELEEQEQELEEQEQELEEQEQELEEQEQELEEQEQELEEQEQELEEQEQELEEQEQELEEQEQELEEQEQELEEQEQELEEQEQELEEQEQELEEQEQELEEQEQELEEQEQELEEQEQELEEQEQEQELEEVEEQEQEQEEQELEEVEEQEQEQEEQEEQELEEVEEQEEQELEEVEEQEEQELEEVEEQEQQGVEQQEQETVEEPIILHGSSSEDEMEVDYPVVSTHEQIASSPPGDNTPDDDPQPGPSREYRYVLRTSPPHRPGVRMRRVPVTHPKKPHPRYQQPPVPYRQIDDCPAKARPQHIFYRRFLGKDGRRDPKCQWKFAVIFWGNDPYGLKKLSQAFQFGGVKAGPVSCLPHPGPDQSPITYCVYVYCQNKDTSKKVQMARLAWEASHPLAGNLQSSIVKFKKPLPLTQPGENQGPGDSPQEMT

[8] = molecular target: Peroxisome proliferator-activated receptor gamma/Nuclear receptor coactivator 1 (Homo sapiens, UniProt P37231); assay: (§1) TR-FRET dose response biochemical High Throughput Screening assay for agonists of the steroid receptor coactivator 1 (SRC-1) recruitment by the peroxisome proliferator-activated receptor gamma (PPAR gamma): non-selective agonists. [Related pubchem assays (depositor defined):AID1300, AID1808, AID504735, AID631]; assay type: protein assay
Chain of Peroxisome proliferator-activated receptor gamma/Nuclear receptor coactivator 1 (P37231 whole entry): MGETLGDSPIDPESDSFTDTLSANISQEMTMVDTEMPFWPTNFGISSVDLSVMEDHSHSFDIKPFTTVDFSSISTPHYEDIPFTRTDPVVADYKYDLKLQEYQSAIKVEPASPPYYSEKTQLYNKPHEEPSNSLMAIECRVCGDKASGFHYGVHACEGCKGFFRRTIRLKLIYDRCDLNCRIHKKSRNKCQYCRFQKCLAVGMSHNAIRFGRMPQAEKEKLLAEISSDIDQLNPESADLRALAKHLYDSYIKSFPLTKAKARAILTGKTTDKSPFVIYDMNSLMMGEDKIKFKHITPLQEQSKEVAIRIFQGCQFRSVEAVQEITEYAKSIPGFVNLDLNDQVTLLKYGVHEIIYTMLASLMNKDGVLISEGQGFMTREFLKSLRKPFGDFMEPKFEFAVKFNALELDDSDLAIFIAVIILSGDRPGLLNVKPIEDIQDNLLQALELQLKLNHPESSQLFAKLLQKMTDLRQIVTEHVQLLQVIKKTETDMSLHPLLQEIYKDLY
Chain of Peroxisome proliferator-activated receptor gamma/Nuclear receptor coactivator 1 (Q15788 whole entry, further chain): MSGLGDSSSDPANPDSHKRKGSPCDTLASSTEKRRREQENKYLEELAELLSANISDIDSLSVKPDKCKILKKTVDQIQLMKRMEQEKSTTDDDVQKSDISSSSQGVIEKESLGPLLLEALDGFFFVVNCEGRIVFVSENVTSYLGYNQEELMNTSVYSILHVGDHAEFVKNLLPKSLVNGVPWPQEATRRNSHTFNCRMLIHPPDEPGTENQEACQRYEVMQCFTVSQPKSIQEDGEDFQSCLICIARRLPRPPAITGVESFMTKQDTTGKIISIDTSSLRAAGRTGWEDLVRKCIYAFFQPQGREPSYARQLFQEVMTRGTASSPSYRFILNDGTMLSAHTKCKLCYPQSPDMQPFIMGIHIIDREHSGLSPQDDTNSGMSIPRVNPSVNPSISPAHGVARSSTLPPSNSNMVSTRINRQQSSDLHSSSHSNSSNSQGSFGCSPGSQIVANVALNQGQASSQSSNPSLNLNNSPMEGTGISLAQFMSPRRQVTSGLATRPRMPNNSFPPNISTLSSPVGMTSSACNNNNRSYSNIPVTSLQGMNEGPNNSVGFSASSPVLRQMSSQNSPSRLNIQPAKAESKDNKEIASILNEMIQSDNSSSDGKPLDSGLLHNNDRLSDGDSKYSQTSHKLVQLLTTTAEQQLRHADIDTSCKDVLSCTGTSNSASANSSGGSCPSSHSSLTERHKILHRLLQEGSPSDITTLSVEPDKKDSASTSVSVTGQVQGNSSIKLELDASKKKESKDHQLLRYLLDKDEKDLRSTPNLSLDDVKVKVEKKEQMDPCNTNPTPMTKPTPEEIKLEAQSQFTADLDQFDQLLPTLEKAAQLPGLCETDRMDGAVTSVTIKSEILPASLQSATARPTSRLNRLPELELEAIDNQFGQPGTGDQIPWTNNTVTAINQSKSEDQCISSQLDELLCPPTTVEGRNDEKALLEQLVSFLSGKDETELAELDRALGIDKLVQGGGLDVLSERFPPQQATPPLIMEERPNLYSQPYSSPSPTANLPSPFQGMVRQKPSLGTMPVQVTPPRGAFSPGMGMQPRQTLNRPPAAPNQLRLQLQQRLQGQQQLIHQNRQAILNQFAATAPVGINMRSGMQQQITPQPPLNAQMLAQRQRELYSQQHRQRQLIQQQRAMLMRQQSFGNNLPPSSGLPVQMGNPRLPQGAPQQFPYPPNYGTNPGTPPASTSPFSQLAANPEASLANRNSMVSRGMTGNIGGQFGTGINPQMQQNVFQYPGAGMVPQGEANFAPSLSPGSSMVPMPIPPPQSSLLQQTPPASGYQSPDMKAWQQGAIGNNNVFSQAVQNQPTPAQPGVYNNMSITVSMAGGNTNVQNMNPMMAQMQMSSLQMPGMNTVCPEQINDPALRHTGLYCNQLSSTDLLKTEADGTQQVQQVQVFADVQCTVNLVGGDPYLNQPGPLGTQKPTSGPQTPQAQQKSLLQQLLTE

[9] = molecular target: T2, Zinc finger protein mex-5 (Caenorhabditis elegans, UniProt Q9XUB2); assay: MEX-5/TCR-2 RNA interaction inhibitors, dose response, biochemical, C. elegans, fluorescence polarization (AID 1960)
T2 sequence (Q9XUB2 whole entry): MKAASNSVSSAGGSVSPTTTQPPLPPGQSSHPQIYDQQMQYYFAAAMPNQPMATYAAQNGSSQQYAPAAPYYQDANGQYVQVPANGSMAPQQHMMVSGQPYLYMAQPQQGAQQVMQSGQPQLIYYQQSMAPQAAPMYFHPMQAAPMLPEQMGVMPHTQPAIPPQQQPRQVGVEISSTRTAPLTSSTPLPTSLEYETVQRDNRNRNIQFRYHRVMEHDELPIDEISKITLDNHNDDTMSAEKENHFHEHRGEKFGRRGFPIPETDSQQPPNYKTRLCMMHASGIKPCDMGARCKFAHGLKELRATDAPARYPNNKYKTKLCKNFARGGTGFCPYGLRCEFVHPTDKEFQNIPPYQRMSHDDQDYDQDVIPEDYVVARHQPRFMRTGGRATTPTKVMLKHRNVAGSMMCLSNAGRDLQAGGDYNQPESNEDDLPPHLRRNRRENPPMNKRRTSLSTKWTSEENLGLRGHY

Keap1/Nrf2 = Keap1/Nrf2 (Homo sapiens, UniProt Q14145); assay: Keap1-Nrf2 protein-protein interaction inhibitors, dose response, biochemical, fluorescence polarization, cherry-picked samples (AID 588683)
[10] = molecular target: T3, RNA-binding protein pos-1 (Caenorhabditis elegans, UniProt G5EF15); assay: inhibitors of POS-1/mex-3 RNA binding, dose response, biochemical, fluorescence polarization (AID 1964);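 note: purified POS-1 fused to maltose binding protein made in E. coli; potency of compounds blocking POS-1 binding to fluorescent RNA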
T3 sequence (G5EF15 whole entry): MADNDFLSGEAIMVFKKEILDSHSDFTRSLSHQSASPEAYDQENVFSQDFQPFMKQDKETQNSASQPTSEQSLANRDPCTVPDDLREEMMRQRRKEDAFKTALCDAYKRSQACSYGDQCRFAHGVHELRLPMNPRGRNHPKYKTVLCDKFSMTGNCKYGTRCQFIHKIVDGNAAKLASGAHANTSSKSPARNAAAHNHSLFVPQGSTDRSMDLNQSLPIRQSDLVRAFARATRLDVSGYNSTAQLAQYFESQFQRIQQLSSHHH

[11] = molecular target: Mitogen-activated protein kinase 10 (Homo sapiens, UniProt P53779); assay: Dose response biochemical screening assay for inhibitors of c-Jun N-Terminal Kinase 3 (JNK3). [Related pubchem assays: 746 ]
Chain of Mitogen-activated protein kinase 10 (P53779 whole entry): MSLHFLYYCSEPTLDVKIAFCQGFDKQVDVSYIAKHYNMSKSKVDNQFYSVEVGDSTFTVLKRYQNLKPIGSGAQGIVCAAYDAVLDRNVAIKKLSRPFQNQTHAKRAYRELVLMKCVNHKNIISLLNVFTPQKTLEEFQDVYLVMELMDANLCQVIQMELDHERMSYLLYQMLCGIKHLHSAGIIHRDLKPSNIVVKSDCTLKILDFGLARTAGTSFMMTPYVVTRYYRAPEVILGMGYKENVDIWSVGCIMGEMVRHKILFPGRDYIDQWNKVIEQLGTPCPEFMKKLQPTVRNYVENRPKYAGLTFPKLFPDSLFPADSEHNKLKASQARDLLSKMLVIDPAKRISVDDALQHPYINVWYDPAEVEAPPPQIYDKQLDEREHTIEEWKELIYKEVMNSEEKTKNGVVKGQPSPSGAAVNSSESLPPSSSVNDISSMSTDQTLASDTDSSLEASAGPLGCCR

HeLa = assay: HeLa cell cytotoxicity, dose response, cytotoxicity control, 24 h, cherry-picked samples (AID 504726); assay type: functional, cell-based; settings: Homo sapiens;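 note: potency for cytotoxicity as loss of luminescence signal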
[12] = molecular target: UDP-galactopyranose mutase (Mycobacterium tuberculosis, UniProt P9WIQ1); assay: Inhibitors of Mycobacterium tuberculosis UDP-galactopyranose mutase (UGM) enzyme Measured in Biochemical System Using Plate Reader - 2105-02_Inhibitor_Dose_CherryPick_Activity. [Related pubchem assays (depositor defined):AID504439]
Chain of UDP-galactopyranose mutase (P9WIQ1 whole entry): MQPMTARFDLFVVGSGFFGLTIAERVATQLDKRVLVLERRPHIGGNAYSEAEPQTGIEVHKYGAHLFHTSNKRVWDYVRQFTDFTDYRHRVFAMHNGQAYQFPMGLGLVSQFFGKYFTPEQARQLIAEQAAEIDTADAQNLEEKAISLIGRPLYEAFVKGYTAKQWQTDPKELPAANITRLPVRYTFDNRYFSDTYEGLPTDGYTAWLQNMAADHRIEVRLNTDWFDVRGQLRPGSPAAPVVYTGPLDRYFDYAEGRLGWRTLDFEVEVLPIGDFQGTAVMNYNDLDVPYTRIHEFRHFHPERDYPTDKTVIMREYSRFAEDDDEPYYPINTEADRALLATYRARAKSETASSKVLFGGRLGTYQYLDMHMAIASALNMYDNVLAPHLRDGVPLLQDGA

[13] = molecular target: Peroxisome proliferator-activated receptor gamma/Nuclear receptor coactivator 3 (Homo sapiens, UniProt P37231); assay: as §1, with “3 (SRC-3)” for “1 (SRC-1)”, “assays: 1301 (Confirmation screen.), 1048 (Primary screen.)]” for “assays (depositor defined):AID1300, AID1808, AID504735, AID631]”; assay type: functional
[14] = molecular target: Peroxisome proliferator-activated receptor gamma/Nuclear receptor coactivator 2 (Homo sapiens, UniProt P37231); assay: TR-FRET dose response biochemical High Throughput Screening assay for agonists of the steroid receptor coactivator 2 (SRC-2) recruitment by the peroxisome proliferator-activated receptor gamma (PPAR gamma): non-selective agonists. [Related pubchem assays: 1297, 1032 ]; assay type: functional
Chain of Peroxisome proliferator-activated receptor gamma/Nuclear receptor coactivator 2 (P37231 whole entry): as the sequence (P37231 whole entry) above
Chain of Peroxisome proliferator-activated receptor gamma/Nuclear receptor coactivator 2 (Q15596 whole entry, further chain): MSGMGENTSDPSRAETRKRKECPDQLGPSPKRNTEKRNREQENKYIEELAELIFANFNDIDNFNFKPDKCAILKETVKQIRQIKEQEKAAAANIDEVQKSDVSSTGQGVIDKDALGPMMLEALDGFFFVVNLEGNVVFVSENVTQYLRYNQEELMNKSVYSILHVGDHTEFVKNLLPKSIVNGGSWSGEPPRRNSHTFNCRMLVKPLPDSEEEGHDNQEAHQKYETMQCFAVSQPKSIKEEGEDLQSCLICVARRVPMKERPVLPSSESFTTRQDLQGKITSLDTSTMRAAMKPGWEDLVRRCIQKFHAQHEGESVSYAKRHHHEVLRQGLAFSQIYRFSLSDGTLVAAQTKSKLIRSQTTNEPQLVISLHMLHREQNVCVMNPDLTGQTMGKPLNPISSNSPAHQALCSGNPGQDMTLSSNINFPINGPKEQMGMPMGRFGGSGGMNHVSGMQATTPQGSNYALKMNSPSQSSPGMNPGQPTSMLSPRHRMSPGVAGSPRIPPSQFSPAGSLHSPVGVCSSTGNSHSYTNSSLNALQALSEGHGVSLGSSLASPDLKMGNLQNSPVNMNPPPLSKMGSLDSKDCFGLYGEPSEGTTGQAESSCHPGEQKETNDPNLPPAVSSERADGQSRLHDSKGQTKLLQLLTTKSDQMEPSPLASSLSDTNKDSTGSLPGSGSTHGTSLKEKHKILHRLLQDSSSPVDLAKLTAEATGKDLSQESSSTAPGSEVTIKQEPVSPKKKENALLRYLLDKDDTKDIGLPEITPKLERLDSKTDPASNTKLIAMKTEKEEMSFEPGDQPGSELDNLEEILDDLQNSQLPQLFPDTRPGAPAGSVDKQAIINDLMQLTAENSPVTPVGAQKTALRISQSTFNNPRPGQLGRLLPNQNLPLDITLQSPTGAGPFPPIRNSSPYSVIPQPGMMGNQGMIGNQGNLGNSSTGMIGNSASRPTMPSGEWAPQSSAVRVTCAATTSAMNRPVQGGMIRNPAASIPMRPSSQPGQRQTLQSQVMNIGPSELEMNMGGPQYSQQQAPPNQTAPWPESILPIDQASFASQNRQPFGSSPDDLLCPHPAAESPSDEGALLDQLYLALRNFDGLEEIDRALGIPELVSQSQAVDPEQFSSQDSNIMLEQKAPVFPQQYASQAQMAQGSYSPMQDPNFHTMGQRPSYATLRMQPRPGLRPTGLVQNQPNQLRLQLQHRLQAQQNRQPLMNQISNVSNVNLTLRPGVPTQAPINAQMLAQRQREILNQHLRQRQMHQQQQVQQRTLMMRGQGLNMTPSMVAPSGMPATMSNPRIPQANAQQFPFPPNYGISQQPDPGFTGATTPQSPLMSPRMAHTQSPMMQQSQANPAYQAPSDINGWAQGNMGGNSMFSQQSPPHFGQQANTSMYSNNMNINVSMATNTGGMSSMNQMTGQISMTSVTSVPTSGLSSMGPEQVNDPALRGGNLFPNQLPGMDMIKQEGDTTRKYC

14-3-3 protein gamma = 14-3-3 protein gamma (Homo sapiens, UniProt P61981); assay: modulators of 14-3-3 gamma client binding – dose response (AID 711); assay type: functional
Chain of 14-3-3 protein gamma (P61981 whole entry): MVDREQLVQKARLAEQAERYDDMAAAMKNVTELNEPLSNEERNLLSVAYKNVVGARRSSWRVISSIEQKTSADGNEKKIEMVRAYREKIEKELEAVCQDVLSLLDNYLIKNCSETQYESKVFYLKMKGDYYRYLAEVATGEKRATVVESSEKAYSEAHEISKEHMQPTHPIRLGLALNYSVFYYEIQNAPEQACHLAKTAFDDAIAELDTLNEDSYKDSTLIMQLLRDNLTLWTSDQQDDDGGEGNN

Bcl-2-related protein A1 [15] = molecular target: T4, Bcl-2-related protein A1 (Mus musculus, UniProt Q07440); assay: Bfl-1 inhibitors blocking BH3 peptide binding, confirmation, biochemical, TR-FRET, mouse Bfl-1 (AID 621);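 note: TR-FRET binding of GST-Bfl-1 to FITC-labelled Bid peptide via terbium antibody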
T4 sequence (Q07440 whole entry): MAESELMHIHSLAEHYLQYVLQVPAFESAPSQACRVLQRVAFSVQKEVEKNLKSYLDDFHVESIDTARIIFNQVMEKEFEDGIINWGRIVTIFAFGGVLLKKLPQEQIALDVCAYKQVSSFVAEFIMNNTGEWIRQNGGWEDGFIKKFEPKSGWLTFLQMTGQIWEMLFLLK

Bcl-2-related protein A1 [16] = molecular target: T4, Bcl-2-related protein A1; assay: Bfl-1 binding inhibitors, SAR follow-up, biochemical, fluorescence polarization (AID 1070)
[17] = Shn3 3'UTR reporter inhibitors, dose response, cell-based, Clone20 osteoblasts, firefly luciferase, cherry-picked (AID 624132); assay type: functional;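 note: firefly luciferase luminescence from reporter carrying the Shn3 3'UTR in osteoblasts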
[18] = control 3'UTR Renilla luciferase suppression, dose response, counter-screen for Shn3 inhibitor project, cell-based, Clone20-Shn3RL, cherry-picked (AID 624133); assay type: functional
[19] = molecular target: T5, Heat shock factor protein 1 (Mus musculus, UniProt P38532); assay: HSF1 potentiators in luciferase reporter cells, confirmation, cell-based, NIH3T3, luminescence, dose retest (AID 435004); assay type: functional;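 note: stress induced by proteasome inhibitor MG132 added 30 min after compound; luciferase reporter driven by HSF1 response element in NIH3T3 cells; actives raise luminescence as potentiators of the MG132 stress response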
T5 sequence (P38532 whole entry): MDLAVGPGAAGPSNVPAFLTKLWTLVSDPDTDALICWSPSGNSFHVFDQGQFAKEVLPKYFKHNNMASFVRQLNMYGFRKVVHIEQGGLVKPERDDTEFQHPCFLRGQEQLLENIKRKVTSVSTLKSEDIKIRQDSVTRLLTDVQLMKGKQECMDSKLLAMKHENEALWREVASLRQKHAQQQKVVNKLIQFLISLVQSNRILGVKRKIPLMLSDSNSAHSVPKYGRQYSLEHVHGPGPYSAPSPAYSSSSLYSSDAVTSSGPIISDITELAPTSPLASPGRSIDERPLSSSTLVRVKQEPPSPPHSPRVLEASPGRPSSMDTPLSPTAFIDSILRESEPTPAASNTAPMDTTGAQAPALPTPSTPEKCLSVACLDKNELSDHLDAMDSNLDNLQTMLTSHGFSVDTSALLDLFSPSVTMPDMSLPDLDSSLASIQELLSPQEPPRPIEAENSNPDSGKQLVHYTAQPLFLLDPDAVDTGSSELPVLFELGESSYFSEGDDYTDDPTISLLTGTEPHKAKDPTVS

Vero [20] = assay: host cell cytotoxicity of antiviral hits, dose response, cytotoxicity control for West Nile virus antiviral project, secondary assay (AID 1650); assay type: functional; settings: Chlorocebus sabaeus
[21] = HepG2 cell cytotoxicity, dose response, cytotoxicity control for Shn3 inhibitor project, CellTiter-Glo, cherry-picked (AID 624134); assay type: functional, cell-based
Interleukin-8 [22] = molecular target: T6, Interleukin-8 (Homo sapiens, UniProt P10145); assay: Dose Response confirmation of uHTS small molecule hits for cystic fibrosis induced NFkb Inhibitors in a TNFa-induced IL8 counterscreen.; assay type: functional; settings: read-out: IC50_Mean
T6 sequence (P10145 whole entry): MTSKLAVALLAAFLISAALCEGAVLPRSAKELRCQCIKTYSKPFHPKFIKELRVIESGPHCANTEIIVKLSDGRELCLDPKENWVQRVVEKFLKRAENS

INS1 = assay: beta cell apoptosis inhibitors, cytokine rescue, dose response, luminescence, retest (AID 449756); assay type: functional, cell-based; settings: Rattus norvegicus;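 note: cell death triggered by IL-1 beta plus TNF-alpha plus IFN-gamma mixture; protective hits raise ATP signal compared with cytokine alone wells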
Interleukin-8 [23] = molecular target: T6, Interleukin-8; assay: Dose Response confirmation of uHTS small molecule hits for cystic fibrosis induced NFkb Inhibitors in a PAF-induced IL8 counterscreen.; assay type: functional; settings: read-out: IC50_Mean

O=C(NNC(=O)c1cc2ccccc2cc1O)c1cccs1
EC50 [1]: < 0.1 µM (active) | EC50 [2]: 9.37 µM (active) | CC50 (Vero [3]): > 40 µM (active) | EC50 [4]: > 38 µM (not active) | EC50 [5]: 1.47 µM (active) | EC50 [6]: > 150 µM (inactive) | EC50 [7]: 1.87 µM (active) | EC50 (H4): > 120 µM (not active)

O=C1c2ccccc2-c2onc3ccc(NCc4ccco4)c1c23
AC50 (ORF 73): 7.42 µM (active) | EC50 [8]: > 79.4 µM (inactive) | EC50 [9]: < 0.06 µM (inconclusive) | AC50 (Keap1/Nrf2): 1.26 µM (active) | EC50 [10]: 0.173 µM (inconclusive) | IC50 [11]: 24 µM (not active) | AC50 (HeLa): 17.1 µM (active) | AC50 [12]: 1.2 µM (active) | EC50 [13]: > 79.4 µM (not active) | EC50 [14]: 24.3 µM (not active) | IC50 (14-3-3 protein gamma): < 44 µM (inconclusive)

COc1ccc2nc(O)c(-c3nnn(-c4ccccc4)n3)cc2c1
IC50 (Bcl-2-related protein A1 [15]): > 100 µM (not active) | IC50 (Bcl-2-related protein A1 [16]): > 100 µM (not active)

COc1ccc2c(c1OC)C(=O)OC2Nc1nc(-c2ccccc2)cs1 (centres undefined)
AC50 [17]: 4.7 µM (active) | AC50 [18]: 17.7 µM (active) | EC50 [19]: 13.6 µM (active) | CC50 (Vero [20]): 9.86 µM (active) | AC50 [21]: 58.8 µM (active) | IC50 (Interleukin-8 [22]): 39.9 µM (inactive) | AC50 (INS1): 17.6 µM (active) | IC50 (Interleukin-8 [23]): 0.697 µM (active)
